# Measured values from patent US20230331683A1, “INHIBITORS OF SPINSTER HOMOLOG 2 (SPNS2) FOR USE IN THERAPY” (University of Virginia Patent Foundation, priority 2020, published 2023).
# Where a name gives a salt, the structure may show the parent alone.
# Molecular target: mouse SPNS2 (Mus musculus (Mouse), UniProt Q91VM4)
# Experiment: S1P Transporter Assay (S1P release from whole cells expressing SPNS2)
# Type: cell-based
# Details: in vitro inhibition against SPNS2; HeLa cells expressing mouse SPNS2, S1P release into media after 18 hours; compounds as their pharmaceutical salts
# Procedure: Transporter assays are vectorial and therefore require measurement of the transported analyte in different compartments. The S1P transporter SPNS2 only exports S1P, which obviates measuring uptake of S1P into transporter-expressing cells. Thus, transporter activity was determined by quantifying S1P release from whole cells expressing SPNS2. SPNS2 inhibitor potency was assessed using whole cell assays. HeLa cells expressing mouse SPNS2 were used to determine inhibitor potency (IC50). Cells were plated onto 12 well plates and assayed when the cell monolayers became confluent. Cell growth media (RPMI-1640 containing 10% fetal bovine serum) was replaced with 2 mL of serum-free media (RPMI-1640) containing fatty acid free bovine serum albumin (BSA) (0.2 % w/v) and supplemented with 4-deoxypyridoxine (DOP) (1 mM), NaF (2 mM), Na3VO4 (0.2 mM) to inhibit S1P degradation. Test articles (1 × 10-9 - 1 × 10^-4 M) were assayed in duplicate or triplicate. After 18 hours, media was collected, an internal recovery standard (0.005 mL of 5 × 10^-7 M deuterated (d7) S 1P in methanol) was added, the BSA was precipitated with trichloroacetic acid and the bound S1P extracted with methanol. S1P and S1P-d7 were measured by liquid chromatography mass spectrometry. Inhibitor potency at the human SPNS2 ortholog was determined by an analogous assay using U-937 cells, which endogenously express human SPNS2.
# mouse SPNS2, sequence (Q91VM4 whole entry): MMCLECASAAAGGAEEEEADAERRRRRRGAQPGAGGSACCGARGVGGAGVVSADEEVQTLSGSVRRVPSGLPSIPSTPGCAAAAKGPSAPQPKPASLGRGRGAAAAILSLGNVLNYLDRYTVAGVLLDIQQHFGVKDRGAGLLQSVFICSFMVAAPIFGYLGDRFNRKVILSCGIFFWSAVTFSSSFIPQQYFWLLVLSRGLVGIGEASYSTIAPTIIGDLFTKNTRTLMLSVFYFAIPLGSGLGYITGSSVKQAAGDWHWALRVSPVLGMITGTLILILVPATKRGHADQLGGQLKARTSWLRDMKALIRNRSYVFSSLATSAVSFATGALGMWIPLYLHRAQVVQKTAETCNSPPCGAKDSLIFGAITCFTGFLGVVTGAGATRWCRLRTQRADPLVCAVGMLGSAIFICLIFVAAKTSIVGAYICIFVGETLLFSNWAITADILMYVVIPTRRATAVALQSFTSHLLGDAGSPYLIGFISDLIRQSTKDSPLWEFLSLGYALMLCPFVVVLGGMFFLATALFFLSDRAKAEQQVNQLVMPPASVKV
row,IC50,SMILES
1,≤ 2 µM,"CCCCCCCCCCc1ccc(NC(=O)[C@@H]2CCCN(C(=N)N)C2)cc1 [Compound 4a, (R)carbamimidoyl-N-(4-decylphenyl)piperidine-3-carboxamide 2,2,2-trifluoroacetate]"
2,≤ 2 µM,"CCCCCCCCCCc1ccc(NC(=O)CCCNC(=N)N)cc1 [Compound 4c, N-decylphenyl)-4-guanidinobutanamide Hydrochloride]"
3,> 2 µM,"CCCCCCCCCCc1ccc2oc(CCN)nc2c1 [Compound 8a, 2-Decylbenzo[d]oxazol-2-yl)ethan-1-amine Hydrochloride]"
4,> 2 µM,"CCCCCCCCCCc1ccc2oc(CCCN)nc2c1 [Compound 8b, 3-Decylbenzo[d]oxazol-2-yl)propan-1-amine Hydrochloride]"
5,> 2 µM,"CCCCCCCCCCc1ccc2oc(CCCCCN)nc2c1 [Compound 8c, 5-Decylbenzo[d]oxazol-2-yl)pentan-1-amine Hyrdrochloride]"
6,> 2 µM,"CCCCCCCCCCc1ccc2nc(CCN)oc2c1 [Compound 8d, 2-Decylbenzo[d]oxazol-2-yl)ethan-1-amine Hydrochloride]"
7,> 2 µM,"CCCCCCCCc1ccc2oc(NCCN)nc2c1 [Compound 13a, N^1-octylbenzo[d]oxazol-2-yl)ethane-1,2-diamine hydrochloride]"
8,> 2 µM,"CCCCCCCCCCc1ccc2nc(N3CC[C@@H](N)C3)oc2c1 [Compound 13aa, (R)(6-decylbenzo[d]oxazol-2-yl)pyrrolidin-3-amine Hydrochloride]"
9,≤ 2 µM,"CCCCCCCCCCc1ccc2nc(NC3CCNCC3)oc2c1 [Compound 13ab, 6-decyl-N-(piperidin-4-yl)benzo[d]oxazol-2-amine Hydrochloride]"
10,> 2 µM,"CCCCCCCCCc1ccc2oc(NCCN)nc2c1 [Compound 13b, N^1-nonylbenzo[d]oxazol-2-yl)ethane-1,2-diamine hydrochloride]"
11,> 2 µM,"CCCCCCCCCCc1ccc2oc(NCCN)nc2c1 [Compound 13c, N^1-decylbenzo[d]oxazol-2-yl)ethane-1,2-diamine hydrochloride]"
12,> 2 µM,"CCCCCCCCCCCc1ccc2oc(NCCN)nc2c1 [Compound 13d, N^1-undecylbenzo[d]oxazol-2-yl)ethane-1,2-diamine hydrochloride]"
13,> 2 µM,"CCCCCCCCCCCCc1ccc2oc(NCCN)nc2c1 [Compound 13e, N^1-dodecylbenzo[d]oxazol-2-yl)ethane-1,2-diamine hydrochloride]"
14,> 2 µM,"CCCCCCCCCCc1ccc2oc(NCCCN)nc2c1 [Compound 13f, hydrochloride]"
15,> 2 µM,"CCCCCCCCCCc1ccc2oc(NCCCCN)nc2c1 [Compound 13g, N^1-decylbenzo[d]oxazol-2-yl)butane-1,4-diamine carbamate hydrochloride]"
16,> 2 µM,"CCCCCCCCCCc1ccc2oc(NCCCCCN)nc2c1 [Compound 13h, N^1-decylbenzo[d]oxazol-2-yl)pentane-1,5-diamine hydrochloride]"
17,> 2 µM,"CCCCCCCCCCc1ccc2oc(NC3CNC3)nc2c1 [Compound 13i, N-(azetidin-3-yl)-5-decylbenzo[d]oxazol-2-amine 2,2,2-trifluoroacetate]"
18,≤ 2 µM,"CCCCCCCCCCc1ccc2oc(N[C@@H]3CNC[C@@H]3F)nc2c1 [Compound 13l, 5-decyl-N-((3R,4S)-4-fluoropyrrolidin-3-yl)benzo[d]oxazol-2-amine hydrochloride]"

row,IC50,SMILES
1,≤ 2 µM,"CCCCCCCCCCc1ccc2oc(NC3CCNCC3)nc2c1 [Compound 13m, 5-decyl-N-(piperidin-4-yl)benzo[d]oxazol-2-amine Hydrochloride]"
2,> 2 µM,"CCCCCCCCCCc1ccc2oc(N3CC[C@H](N)C3)nc2c1 [Compound 13n, (S)(5-decylbenzo[d]oxazol-2-yl)pyrrolidin-3-amine Hydrochloride]"
3,> 2 µM,"CCCCCCCCCCc1ccc2oc(N3CC[C@@H](N)C3)nc2c1 [Compound 13o, (R)(5-decylbenzo[d]oxazol-2-yl)pyrrolidin-3-amine Hydrochloride]"
4,> 2 µM,"CCCCCCCCCCc1ccc2oc(N3CCNCC3)nc2c1 [Compound 13p, 5-Decyl(piperazin-1-yl)benzo[d]oxazole Hydrochloride]"
5,> 2 µM,"CCCCCCCCCCc1ccc2nc(NCCN)oc2c1 [Compound 13q, N^1-decylbenzo[d]oxazol-2-yl)ethane-1,2-diamine hydrochloride]"
6,> 2 µM,"CCCCCCCCCCc1ccc2nc(NCCCN)oc2c1 [Compound 13r, N^1-decylbenzo[d]oxazol-2-yl)propane-1,3-diamine hydrochloride]"
7,> 2 µM,"CCCCCCCCCCc1cccc2nc(NCCN)oc12 [Compound 13u, N^1-decylbenzo[d]oxazol-2-yl)ethane-1,2-diamine hydrochloride]"
8,> 2 µM,"CCCCCCCCCCc1cccc2nc(NCCCN)oc12 [Compound 13v, N^1-decylbenzo[d]oxazol-2-yl)propane-1,3-diamine hydrochloride]"
9,> 2 µM,"CCCCCCCCCCc1cccc2oc(NCCN)nc12 [Compound 13w, N^1-decylbenzo[d]oxazol-2-yl)ethane-1,2-diamine hydrochloride]"
10,> 2 µM,"CCCCCCCCCCc1cccc2oc(NCCCN)nc12 [Compound 13x, N^1-decylbenzo[d]oxazol-2-yl)propane-1,3-diamine hydrochloride]"
11,≤ 2 µM,"CCCCCCCCCCc1ccc2nc(N(CCN)CCN)oc2c1 [Compound 13y, N1-aminoethyl)-N1-(6-decylbenzo[d]oxazol-2-yl)ethane-1,2-diamine dihydrochloride]"
12,> 2 µM,"CCCCCCCCCCc1ccc2nc(N3CC[C@H](N)C3)oc2c1 [Compound 13z, (S)(6-decylbenzo[d]oxazol-2-yl)pyrrolidin-3-amine Hydrochloride]"
13,> 2 µM,"CCCCCCCCCCc1ccc2nc(NCCN)sc2c1 [Compound 17a, N^1-decylbenzo[d]thiazol-2-yl)ethane-1,2-diamine hydrochloride]"
14,> 2 µM,"CCCCCCCCCCc1ccc2nc(NCCCN)sc2c1 [Compound 17b, N^1-decylbenzo[d]thiazol-2-yl)propane-1,3-diamine hydrochloride]"
15,≤ 2 µM,"CCCCCCCCCCc1ccc(NC(=O)N2CCC(N)CC2)cc1 [Compound 20a, 4-amino-N-(4-decylphenyl)piperidine-1-carboxamide Hydrochloride]"
16,≤ 2 µM,"CCCCCCCCCCc1ccc(NC(=O)NCCCN)cc1 [Compound 20b, 1-Aminopropyl)-3-(4-decylphenyl)urea Hydrochloride]"
17,> 2 µM,"CCCCCCCCCCc1ccc(NC(=O)OCCN)cc1 [Compound 23a, 2-Aminoethyl (4-decylphenyl)carbamate Hydrochloride]"

# More lines, now with the values behind:
row,SMILES,IC50
1,CCCCCCCCCCc1ccc(NC(=O)[C@@H]2CCCNC2)cc1 [Compound 2a],> 2 µM
2,CCCCCCCCCCc1ccc(NC(=O)[C@@H]2CCNC2)cc1 [Compound 2b],> 2 µM
3,"CCCCCCCCCCc1ccc(NC(=O)CCCN)cc1 [Compound 2c, 4-amino-N-(4-decylphenyl)butanamide Hydrochloride]",≤ 2 µM
4,"CCCCCCCCCCc1ccc(NC(=O)CCN)cc1 [Compound 2d, 3-amino-N-(4-decylphenyl)propanamide Hydrochloride]",≤ 2 µM
5,"CCCCCCCCCCc1ccc(NC(=O)CCCCN)cc1 [Compound 2e, 5-amino-N-(4-decylphenyl)pentanamide Hydrochloride]",> 2 µM
6,"CCCCCCCCCCc1ccc(NC(=O)CCCCCN)cc1 [Compound 2f, 6-amino-N-(4-decylphenyl)hexanamide Hydrochloride]",≤ 2 µM
7,"CCCCCCCCCc1ccc(NC(=O)CCCN)cc1 [Compound 2g, 4-amino-N-(4-nonylphenyl)butanamide Hydrochloride]",> 2 µM
8,"CCCCCCCCc1ccc(NC(=O)CCCN)cc1 [Compound 2h, 4-amino-N-(4-octylphenyl)butanamide Hydrochloride]",> 2 µM
9,"CCCCCCCCCCc1ccc(NC(=O)C[C@@H]2CCNC2)cc1 [Compound 2i, (S)-N-decylphenyl)-2-(pyrrolidin-3-yl)acetamide Hydrochloride]",≤ 2 µM
10,"CCCCCCCCCCc1ccc(NC(=O)C[C@H]2CCNC2)cc1 [Compound 2j, (R)-N-decylphenyl)-2-(pyrrolidin-3-yl)acetamide Hydrochloride]",≤ 2 µM
11,"CCCCCCCCCCc1ccc(NC(=O)CCCN)c(F)c1 [Compound 2l, amino-N-decyl-2-fluorophenyl)butanamide Hydrochloride]",> 2 µM
12,"CCCCCCCCCOc1ccc(NC(=O)CCCN)cc1C(F)(F)F [Compound 2m, 4-amino-N-(4-(nonyloxy)-3-(trifluoromethyl)phenyl)butanamide hydrochloride]",> 2 µM
13,"CCCCCCCCCCc1ccc(NC(=O)CCCNC)cc1 [Compound 2n, N-decylphenyl)-4-(methylamino)butanamide Hydrochloride]",> 2 µM
14,"CCCCCCCCCCc1ccc(NC(=O)C2CCNCC2)cc1 [Compound 2o, N-decylphenyl)piperidine-4-carboxamide Hydrochloride]",> 2 µM
15,"CCCCCCCCCCc1ccc(NC(=O)CCCN(C)C)cc1 [Compound 2p, 4-(dimethylamino)-N-(4-decylphenyl)butanamide Hydrochloride]",> 2 µM
